Assay results reported in ChEMBL document CHEMBL4411300 (Eur J Med Chem, 2019).
Active and inactive are the calls of the source. No cut-off for these calls is given here.

How the values were obtained:
[1] = (§1) Hepatotoxicity in Balb/c mouse infected with Trypanosoma cruzi MHOM/Pe/2011/Arequipa DTU 5 trypomastigotes assessed as increase in total bilirubin level at 20 mg/kg, po once daily for 5 consecutive days starting from day 75 post infection measured on day 127 post infection relative to control; format: toxicity, organism-based; settings: in vivo
[2] = (§2) Hepatotoxicity in Balb/c mouse infected with Trypanosoma cruzi MHOM/Pe/2011/Arequipa DTU 5 trypomastigotes assessed as increase in ratio of serum AST to GOT level at 20 mg/kg, po once daily for 5 consecutive days starting from day 75 post infection measured on day 81 post infection by biochemical analysis relative to control; format: toxicity, organism-based; settings: in vivo
[3] = Hepatotoxicity in Balb/c mouse infected with Trypanosoma cruzi MHOM/Pe/2011/Arequipa DTU 5 trypomastigotes assessed as increase in alkaline phosphatase level at 20 mg/kg, po once daily for 5 consecutive days starting from day 75 post infection measured on day 127 post infection relative to control; format: toxicity, organism-based; settings: in vivo
[4] = Hepatotoxicity in Balb/c mouse infected with Trypanosoma cruzi MHOM/Pe/2011/Arequipa DTU 5 trypomastigotes assessed as decrease in total bilirubin level at 20 mg/kg, po once daily for 5 consecutive days starting from day 75 post infection measured on day 127 post infection relative to control; format: toxicity, organism-based; set-up: scale not given: the % may be the effect or the level left; settings: in vivo
[5] = as §2, with “decrease” for “increase”, “10” for “75”, “16” for “81”, “infection” for “infection by biochemical analysis”; format: toxicity, organism-based; set-up: scale not given: the % may be the effect or the level left; settings: in vivo
[6] = Cardiotoxicity in Balb/c mouse infected with Trypanosoma cruzi MHOM/Pe/2011/Arequipa DTU 5 trypomastigotes assessed as change in serum LDH level at 20 mg/kg, po once daily for 5 consecutive days starting from day 75 post infection measured on day 127 post infection (reference value: 6679 U/L); format: toxicity, organism-based; settings: in vivo
[7] = (§3) Cardiotoxicity in Balb/c mouse infected with Trypanosoma cruzi MHOM/Pe/2011/Arequipa DTU 5 trypomastigotes assessed as change in serum LDH level at 20 mg/kg, po once daily for 5 consecutive days starting from day 75 post infection measured on day 81 post infection (reference value: 5951 U/L); format: toxicity, organism-based; settings: in vivo
Trypanosoma cruzi [8] = assay: Inhibition of Trypanosoma cruzi MHOM/Pe/2011/Arequipa DTU 5 epimastigotes Fe-SOD at 100 uM by UV-Visible spectrophotometric method relative to control
[9] = as §1, with “ratio of serum ALT to GPT” for “total bilirubin”; format: toxicity, organism-based; settings: in vivo
[10] = as §3, with “ratio of creatine kinase in muscle to brain” for “serum LDH level”, “751” for “5951”; format: toxicity, organism-based; settings: in vivo
Trypanosoma cruzi [11] = assay: Trypanocidal activity against Trypanosoma cruzi MHOM/Pe/2011/Arequipa DTU 5 amastigotes infected in African green monkey Vero cells assessed as infected cells at 50 uM after 72 hrs by Giemsa-staining based assay relative to control; format: functional
Trypanosoma cruzi [12] = assay: Antitrypanosomal activity against Trypanosoma cruzi MHOM/Pe/2011/Arequipa DTU 5 trypomastigotes infected in Balb/c mouse assessed as reduction in parasitaemia level at 20 mg/kg, po once daily for 5 consecutive days starting from day 10 post infection measured on day 40 post infection by Neubauer chamber method; format: functional, organism-based
[13] = as §2, with “decrease” for “increase”, “127” for “81”, “infection” for “infection by biochemical analysis”; format: toxicity, organism-based; set-up: scale not given: the % may be the effect or the level left; settings: in vivo
Trypanosoma cruzi [14] = assay: (§4) Antitrypanosomal activity against Trypanosoma cruzi MHOM/Pe/2011/Arequipa DTU 5 trypomastigotes infected in Balb/c mouse assessed as parasite-free lungs at 20 mg/kg, po pretreated once daily for 5 consecutive days starting from day 75 post infection followed by cyclophosphamide-induced immunosuppression on day 100 post infection every 4 days for a maximum of 3 doses measured on day 127 post infection by PCR method; format: functional, organism-based
[15] = Hepatotoxicity in Balb/c mouse infected with Trypanosoma cruzi MHOM/Pe/2011/Arequipa DTU 5 trypomastigotes assessed as change in total bilirubin level at 20 mg/kg, po once daily for 5 consecutive days starting from day 75 post infection measured on day 127 post infection (reference value: 0.2 mg/dl); format: toxicity, organism-based; settings: in vivo
[16] = as §3, with “Hepatotoxicity” for “Cardiotoxicity”, “alkaline phosphatase” for “serum LDH”, “167” for “5951”; format: toxicity, organism-based; settings: in vivo
[17] = as §2, with “Cardiotoxicity” for “Hepatotoxicity”, “decrease” for “increase”, “in” for “in ratio of”, “LDH” for “AST to GOT”, “10” for “75”, “16” for “81”; format: toxicity, organism-based; set-up: scale not given: the % may be the effect or the level left; settings: in vivo
Trypanosoma cruzi [18] = assay: as §4, with “muscle” for “lungs”; format: functional, organism-based
[19] = Hepatotoxicity in Balb/c mouse infected with Trypanosoma cruzi MHOM/Pe/2011/Arequipa DTU 5 trypomastigotes assessed as decrease in alkaline phosphatase level at 20 mg/kg, po once daily for 5 consecutive days starting from day 10 post infection measured on day 127 post infection by biochemical analysis relative to control; format: toxicity, organism-based; set-up: scale not given: the % may be the effect or the level left; settings: in vivo
[20] = Hepatotoxicity in Balb/c mouse infected with Trypanosoma cruzi MHOM/Pe/2011/Arequipa DTU 5 trypomastigotes assessed as change in total bilirubin level at 20 mg/kg, po once daily for 5 consecutive days starting from day 75 post infection measured on day 81 post infection (reference value: 0.25 mg/dl); format: toxicity, organism-based; settings: in vivo
Trypanosoma cruzi [21] = assay: as §4, with “brain” for “lungs”; format: functional, organism-based

O=C(Cn1ccnc1[N+](=O)[O-])NCc1ccccc1 [BENZNIDAZOLE]
Activity [1]: <= 20%
Activity [2]: <= 20%
Activity [3]: <= 20%

Cl.Cl.Cl.Cl.Cl.Cl.c1ccc2nc(CNCCN(CCNCc3ccc4ccccc4n3)CCNCc3ccc4ccccc4n3)ccc2c1
Activity [4]: <= 10%
Activity [5]: <= 10%
Activity [6]: 6679 U/L
Activity [7]: 6679 U/L
inhibition (Trypanosoma cruzi [8]): 100%
Activity [9]: <= 10%
Activity [10]: 751 U/L
Activity (Trypanosoma cruzi [11]): 0%

Cl.Cl.Cl.NCCN(CCN)CCNCc1ccc2c(c1)Cc1ccccc1-2
Activity (Trypanosoma cruzi [12]): Active
Activity [13]: <= 10%
Activity (Trypanosoma cruzi [14]): Active
Activity [15]: 0.2 mg/dL
Activity [16]: 167 U/L
Activity [17]: <= 10%
Activity (Trypanosoma cruzi [18]): Active
Activity [19]: <= 10%
Activity [20]: 0.25 mg/dL
Activity (Trypanosoma cruzi [21]): Active
